Laboratory results published in patent publication US20110039721A1, “METHOD FOR PREDICTION ABOUT CARCINOGENICITY OF SUBSTANCE IN RODENT” (Chemicals Evaluation and Research Institute, priority 2007, published 2011).

Assays:
liver = conditions: classification of the substance (Cr+/Cr−); cited from earlier work
[1] = test system: mRNA expressed from the genes (A) to (D) in rat liver; assay: Behavior of genes (mRNA expression level, oligo-DNA microarray) in rat liver after 28-day oral administration; format: in vivo; conditions: mRNA vs vehicle control group; for Behavior of gene caused by administration of chemical substance, Gene No. 4846 / Behavior of gene caused by administration of chemical substance, Gene No. 2026 / Behavior of gene caused by administration of chemical substance, Gene No. 4218 / Behavior of gene caused by administration of chemical substance, Gene No. 6182 / Behavior of gene caused by administration of chemical substance, Gene No. 5600: gene group (A); for Behavior of gene caused by administration of chemical substance, Gene No. 4846: Unigene No. Rn.144554; for Behavior of gene caused by administration of chemical substance, Gene No. 2026 / Behavior of gene caused by administration of chemical substance, Gene No. 4218: Unigene No. Rn.167075; for Behavior of gene caused by administration of chemical substance, Gene No. 6182: Unigene No. Rn.5834; for Behavior of gene caused by administration of chemical substance, Gene No. 5600: Unigene No. Rn.9836; for Behavior of gene caused by administration of chemical substance, Gene No. 1494 / Behavior of gene caused by administration of chemical substance, Gene No. 2045 / Behavior of gene caused by administration of chemical substance, Gene No. 2203: gene group (B); for Behavior of gene caused by administration of chemical substance, Gene No. 1494: Unigene No. Rn.1430; for Behavior of gene caused by administration of chemical substance, Gene No. 2045: Unigene No. Rn.19329; for Behavior of gene caused by administration of chemical substance, Gene No. 2203: Unigene No. Rn.21240; for Behavior of gene caused by administration of chemical substance, Gene No. 533 / Behavior of gene caused by administration of chemical substance, Gene No. 725 / Behavior of gene caused by administration of chemical substance, Gene No. 1163 / Behavior of gene caused by administration of chemical substance, Gene No. 4973 / Behavior of gene caused by administration of chemical substance, Gene No. 4095 / Behavior of gene caused by administration of chemical substance, Gene No. 1334 / Behavior of gene caused by administration of chemical substance, Gene No. 6620 / Behavior of gene caused by administration of chemical substance, Gene No. 6303 / Behavior of gene caused by administration of chemical substance, Gene No. 5878 / Behavior of gene caused by administration of chemical substance, Gene No. 1131 / Behavior of gene caused by administration of chemical substance, Gene No. 1562 / Behavior of gene caused by administration of chemical substance, Gene No. 1741 / Behavior of gene caused by administration of chemical substance, Gene No. 893 / Behavior of gene caused by administration of chemical substance, Gene No. 6026 / Behavior of gene caused by administration of chemical substance, Gene No. 154 / Behavior of gene caused by administration of chemical substance, Gene No. 1993 / Behavior of gene caused by administration of chemical substance, Gene No. 813 / Behavior of gene caused by administration of chemical substance, Gene No. 2494 / Behavior of gene caused by administration of chemical substance, Gene No. 2546 / Behavior of gene caused by administration of chemical substance, Gene No. 3776 / Behavior of gene caused by administration of chemical substance, Gene No. 3929 / Behavior of gene caused by administration of chemical substance, Gene No. 1119 / Behavior of gene caused by administration of chemical substance, Gene No. 6742 / Behavior of gene caused by administration of chemical substance, Gene No. 5634: gene group (C); for Behavior of gene caused by administration of chemical substance, Gene No. 533: Unigene No. Rn.106184; for Behavior of gene caused by administration of chemical substance, Gene No. 725: Unigene No. Rn.108075; for Behavior of gene caused by administration of chemical substance, Gene No. 1163: Unigene No. Rn.11766; for Behavior of gene caused by administration of chemical substance, Gene No. 4973: Unigene No. Rn.118529; for Behavior of gene caused by administration of chemical substance, Gene No. 4095: Unigene No. Rn.119024; for Behavior of gene caused by administration of chemical substance, Gene No. 1334 / Behavior of gene caused by administration of chemical substance, Gene No. 6620: Unigene No. Rn.120914; for Behavior of gene caused by administration of chemical substance, Gene No. 6303: Unigene No. Rn.123063; for Behavior of gene caused by administration of chemical substance, Gene No. 5878: Unigene No. Rn.143213; for Behavior of gene caused by administration of chemical substance, Gene No. 1131: Unigene No. Rn.144946; for Behavior of gene caused by administration of chemical substance, Gene No. 1562: Unigene No. Rn.14744; for Behavior of gene caused by administration of chemical substance, Gene No. 1741: Unigene No. Rn.1647; for Behavior of gene caused by administration of chemical substance, Gene No. 893: Unigene No. Rn.164817; for Behavior of gene caused by administration of chemical substance, Gene No. 6026: Unigene No. Rn.167685; for Behavior of gene caused by administration of chemical substance, Gene No. 154: Unigene No. Rn.185941; for Behavior of gene caused by administration of chemical substance, Gene No. 1993: Unigene No. Rn.18728; for Behavior of gene caused by administration of chemical substance, Gene No. 813: Unigene No. Rn.201760; for Behavior of gene caused by administration of chemical substance, Gene No. 2494: Unigene No. Rn.23969; for Behavior of gene caused by administration of chemical substance, Gene No. 2546: Unigene No. Rn.24561; for Behavior of gene caused by administration of chemical substance, Gene No. 3776: Unigene No. Rn.43232; for Behavior of gene caused by administration of chemical substance, Gene No. 3929: Unigene No. Rn.4620; for Behavior of gene caused by administration of chemical substance, Gene No. 1119: Unigene No. Rn.9757; for Behavior of gene caused by administration of chemical substance, Gene No. 6742: Unigene No. Rn.9779; for Behavior of gene caused by administration of chemical substance, Gene No. 5634: Unigene No. Rn.9862; for Behavior of gene caused by administration of chemical substance, Gene No. 5726: gene group (D), Unigene No. Rn.9939
In short: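 Liver mRNA levels were compared with matched vehicle groups, with a shift of at least 1.5-fold up or down deemed significant unless its direction disagreed with other carcinogens. Test substances were dosed orally by gavage daily for 28 days to 5-week-old male F344 rats, four per group.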

[2] = classification of the substance (M+/M−); cited from earlier work
rodent = conditions: classification of the substance (C+/C−); cited from earlier work

Row | SMILES | Behavior of gene caused by administration of chemical substance, Gene No. 4846 [1] | Behavior of gene caused by administration of chemical substance, Gene No. 2026 [1] | Behavior of gene caused by administration of chemical substance, Gene No. 4218 [1] | Behavior of gene caused by administration of chemical substance, Gene No. 6182 [1] | Behavior of gene caused by administration of chemical substance, Gene No. 5600 [1] | Behavior of gene caused by administration of chemical substance, Gene No. 1494 [1] | Behavior of gene caused by administration of chemical substance, Gene No. 2045 [1] | Behavior of gene caused by administration of chemical substance, Gene No. 2203 [1] | Behavior of gene caused by administration of chemical substance, Gene No. 533 [1] | Behavior of gene caused by administration of chemical substance, Gene No. 725 [1] | Behavior of gene caused by administration of chemical substance, Gene No. 1163 [1] | Behavior of gene caused by administration of chemical substance, Gene No. 4973 [1] | Behavior of gene caused by administration of chemical substance, Gene No. 4095 [1] | Behavior of gene caused by administration of chemical substance, Gene No. 1334 [1] | Behavior of gene caused by administration of chemical substance, Gene No. 6620 [1] | Behavior of gene caused by administration of chemical substance, Gene No. 6303 [1] | Behavior of gene caused by administration of chemical substance, Gene No. 5878 [1] | Behavior of gene caused by administration of chemical substance, Gene No. 1131 [1] | Behavior of gene caused by administration of chemical substance, Gene No. 1562 [1] | Behavior of gene caused by administration of chemical substance, Gene No. 1741 [1] | other results
1 | CCSCCC(N)C(=O)O (racemic) [TS070, D,L-Ethionine] | − | − | − | − | − | + | − | + | − | + | − | − | − | − | − | − | − | − | − | − | Liver carcinogenicity (liver): Cr+; Behavior of gene caused by administration of chemical substance, Gene No. 893 [1]: −; Behavior of gene caused by administration of chemical substance, Gene No. 6026 [1]: −; Behavior of gene caused by administration of chemical substance, Gene No. 154 [1]: −; Behavior of gene caused by administration of chemical substance, Gene No. 1993 [1]: −; Behavior of gene caused by administration of chemical substance, Gene No. 813 [1]: −; Behavior of gene caused by administration of chemical substance, Gene No. 2494 [1]: −; Behavior of gene caused by administration of chemical substance, Gene No. 2546 [1]: −; Behavior of gene caused by administration of chemical substance, Gene No. 3776 [1]: −; Behavior of gene caused by administration of chemical substance, Gene No. 3929 [1]: −; Behavior of gene caused by administration of chemical substance, Gene No. 1119 [1]: −; Behavior of gene caused by administration of chemical substance, Gene No. 6742 [1]: −; Behavior of gene caused by administration of chemical substance, Gene No. 5634 [1]: −; Behavior of gene caused by administration of chemical substance, Gene No. 5726 [1]: −; Mutagenicity by Ames test [2]: M−; Carcinogenicity (rodent): C+
2 | CCC1(c2ccccc2)C(=O)NC(=O)NC1=O [TS008, Phenobarbital] | + | − | − | − | − | + | − | − | + | + | − | + | + | + | + | + | − | − | + | + | Behavior of gene caused by administration of chemical substance, Gene No. 893 [1]: +; Behavior of gene caused by administration of chemical substance, Gene No. 6026 [1]: +; Behavior of gene caused by administration of chemical substance, Gene No. 154 [1]: +; Behavior of gene caused by administration of chemical substance, Gene No. 1993 [1]: +; Behavior of gene caused by administration of chemical substance, Gene No. 813 [1]: +; Behavior of gene caused by administration of chemical substance, Gene No. 2494 [1]: +; Behavior of gene caused by administration of chemical substance, Gene No. 2546 [1]: +; Behavior of gene caused by administration of chemical substance, Gene No. 3776 [1]: −; Behavior of gene caused by administration of chemical substance, Gene No. 3929 [1]: +; Behavior of gene caused by administration of chemical substance, Gene No. 1119 [1]: +; Behavior of gene caused by administration of chemical substance, Gene No. 6742 [1]: +; Behavior of gene caused by administration of chemical substance, Gene No. 5634 [1]: +; Behavior of gene caused by administration of chemical substance, Gene No. 5726 [1]: −; Mutagenicity by Ames test [2]: M−
